Test results as given in ChEMBL document CHEMBL1201862, “PubChem BioAssay data set” (2004).
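96-well plates; 48 h exposure; 5 concentrations. Endpoints by linear interpolation between flanking doses. Not reached: highest tested concentration assigned. At the GI50, growth is halved.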 Calls of active or inactive are those of the source. Rule as the data show it: active = GI50 up to about 1.1 µM and inactive = higher.

Legend:
Experiment in all cases: DTP human tumour cell line panel, 48 h
SF-268 = system: SF-268
K562 = system: K562
KM12 = system: KM12
Hs-578T = system: Hs-578T
NCI-H23 = system: NCI-H23
RPMI-8226 = system: RPMI-8226
NCI-H460 = system: NCI-H460
SK-MEL-28 = system: SK-MEL-28
DU-145 = system: DU-145
HOP-62 = system: HOP-62
MDA-MB-435 = system: MDA-MB-435
HL-60 = system: HL-60
SNB-75 = system: SNB-75
HCC 2998 = system: HCC 2998
NCI-H522 = system: NCI-H522
NCI-H226 = system: NCI-H226
MOLT-4 = system: MOLT-4
CAKI-1 = system: CAKI-1
SK-MEL-5 = system: SK-MEL-5
UACC-62 = system: UACC-62

COc1ccc(/C=C2\N=C(c3ccccc3)N(C3Nc4cc5c(cc4S3)NC(N3C(=O)/C(=C/c4ccc(OC)cc4)N=C3c3ccccc3)S5)C2=O)cc1 (stereo unspecified)
GI50 (SF-268): 29.6 µM (inactive) | GI50 (K562): 58.2 µM (inactive) | GI50 (KM12): 54.6 µM (inactive) | GI50 (Hs-578T): 48.5 µM (inactive) | GI50 (NCI-H23): 42.9 µM (inactive) | GI50 (RPMI-8226): 29.5 µM (inactive) | GI50 (NCI-H460): 12.7 µM (inactive) | GI50 (SK-MEL-28): > 100 µM (inactive) | GI50 (DU-145): 50.5 µM (inactive) | GI50 (HOP-62): 41.2 µM (inactive) | GI50 (MDA-MB-435): 56.6 µM (inactive) | GI50 (HL-60): 33.2 µM (inactive) | GI50 (SNB-75): 22.5 µM (inactive) | GI50 (HCC 2998): 30.1 µM (inactive) | GI50 (NCI-H522): 18.1 µM (inactive) | GI50 (NCI-H226): 60.1 µM (inactive) | GI50 (MOLT-4): 23.6 µM (inactive) | GI50 (CAKI-1): > 100 µM (inactive) | GI50 (SK-MEL-5): 37.2 µM (inactive)

CC(C)[Si]1(C(C)C)OCC2OC(n3ccc(=O)[nH]c3=O)C([Se]c3ccccc3)C2O[Si](C(C)C)(C(C)C)O1 (stereo unspecified)
GI50 (SF-268): 2.93 µM (inactive) | GI50 (KM12): 2.16 µM (inactive) | GI50 (Hs-578T): 0.762 µM (active) | GI50 (UACC-62): 4.71 µM (inactive) | GI50 (NCI-H23): 3.57 µM (inactive) | GI50 (RPMI-8226): 2.95 µM (inactive) | GI50 (NCI-H460): 1.87 µM (inactive) | GI50 (SK-MEL-28): 3.59 µM (inactive) | GI50 (DU-145): 12.2 µM (inactive) | GI50 (HOP-62): 12.3 µM (inactive) | GI50 (MDA-MB-435): 5.42 µM (inactive) | GI50 (HL-60): 5.89 µM (inactive) | GI50 (SNB-75): 0.33 µM (active) | GI50 (HCC 2998): 1.58 µM (inactive) | GI50 (NCI-H522): 2.1 µM (inactive) | GI50 (NCI-H226): 1.55 µM (inactive) | GI50 (MOLT-4): 7.38 µM (inactive) | GI50 (CAKI-1): 11.5 µM (inactive) | GI50 (SK-MEL-5): 3.01 µM (inactive)

COc1cc(/C=C2\C[C@H]3[C@@H]4CCC5=CC(=O)CC[C@]5(C)[C@H]4CC[C@]3(C)C2=O)cc(OC)c1OC
GI50 (SF-268): 57.3 µM (inactive) | GI50 (K562): 3.82 µM (inactive) | GI50 (KM12): 3.58 µM (inactive) | GI50 (Hs-578T): 17.8 µM (inactive) | GI50 (UACC-62): 4.35 µM (inactive) | GI50 (NCI-H23): 6.4 µM (inactive) | GI50 (RPMI-8226): 2.38 µM (inactive) | GI50 (NCI-H460): 6.35 µM (inactive) | GI50 (SK-MEL-28): 15.9 µM (inactive) | GI50 (DU-145): 19.5 µM (inactive) | GI50 (HOP-62): 12.8 µM (inactive) | GI50 (MDA-MB-435): 3.36 µM (inactive) | GI50 (HL-60): 3.39 µM (inactive) | GI50 (SNB-75): 9.08 µM (inactive) | GI50 (HCC 2998): 15 µM (inactive) | GI50 (NCI-H522): 3.2 µM (inactive) | GI50 (NCI-H226): > 28.5 µM (inactive) | GI50 (MOLT-4): 2.13 µM (inactive) | GI50 (CAKI-1): 5.37 µM (inactive) | GI50 (SK-MEL-5): 3.07 µM (inactive)

C(=C\N1CCCCC1)/c1nnnn1-c1ccccc1
GI50 (SF-268): 27 µM (inactive) | GI50 (K562): 30.7 µM (inactive) | GI50 (KM12): 56.8 µM (inactive) | GI50 (Hs-578T): 17 µM (inactive) | GI50 (UACC-62): 15.6 µM (inactive) | GI50 (NCI-H23): 25.2 µM (inactive) | GI50 (RPMI-8226): 21.1 µM (inactive) | GI50 (NCI-H460): 73.8 µM (inactive) | GI50 (SK-MEL-28): 44.7 µM (inactive) | GI50 (DU-145): > 100 µM (inactive) | GI50 (HOP-62): 54 µM (inactive) | GI50 (MDA-MB-435): 22.2 µM (inactive) | GI50 (HL-60): 15.8 µM (inactive) | GI50 (SNB-75): 19.6 µM (inactive) | GI50 (HCC 2998): 90.6 µM (inactive) | GI50 (NCI-H522): 47 µM (inactive) | GI50 (NCI-H226): 37.2 µM (inactive) | GI50 (MOLT-4): 17.4 µM (inactive) | GI50 (CAKI-1): 12.4 µM (inactive) | GI50 (SK-MEL-5): 23.3 µM (inactive)

NCC(=O)NC1(c2cc3ccccc3s2)CCCCC1
GI50 (SF-268): 28.4 µM (inactive) | GI50 (K562): 5.68 µM (inactive) | GI50 (KM12): 40.6 µM (inactive) | GI50 (Hs-578T): 27.7 µM (inactive) | GI50 (UACC-62): 19.7 µM (inactive) | GI50 (NCI-H23): 71.4 µM (inactive) | GI50 (RPMI-8226): 21.8 µM (inactive) | GI50 (NCI-H460): 33.5 µM (inactive) | GI50 (SK-MEL-28): 19 µM (inactive) | GI50 (DU-145): > 100 µM (inactive) | GI50 (HOP-62): > 100 µM (inactive) | GI50 (MDA-MB-435): 37.8 µM (inactive) | GI50 (HL-60): 18.5 µM (inactive) | GI50 (SNB-75): 28.3 µM (inactive) | GI50 (HCC 2998): 15.6 µM (inactive) | GI50 (NCI-H522): 41.4 µM (inactive) | GI50 (NCI-H226): 18.7 µM (inactive) | GI50 (CAKI-1): > 100 µM (inactive) | GI50 (SK-MEL-5): 17.8 µM (inactive)

O=c1[nH]nc(Cc2ccccc2)n1/N=C/c1ccncc1
GI50 (SF-268): > 100 µM (inactive) | GI50 (K562): > 100 µM (inactive) | GI50 (KM12): > 100 µM (inactive) | GI50 (Hs-578T): 82.2 µM (inactive) | GI50 (NCI-H23): > 100 µM (inactive) | GI50 (RPMI-8226): > 100 µM (inactive) | GI50 (NCI-H460): > 100 µM (inactive) | GI50 (SK-MEL-28): > 100 µM (inactive) | GI50 (DU-145): > 100 µM (inactive) | GI50 (HOP-62): 48.2 µM (inactive) | GI50 (MDA-MB-435): > 100 µM (inactive) | GI50 (HL-60): > 100 µM (inactive) | GI50 (SNB-75): > 100 µM (inactive) | GI50 (HCC 2998): > 100 µM (inactive) | GI50 (NCI-H522): > 100 µM (inactive) | GI50 (NCI-H226): > 100 µM (inactive) | GI50 (MOLT-4): > 100 µM (inactive) | GI50 (CAKI-1): 42.2 µM (inactive) | GI50 (SK-MEL-5): 64.4 µM (inactive)

COc1ccc(/C=N/c2ccc(-c3nc4ccccc4s3)cc2)cc1OC
GI50 (SF-268): 28 µM (inactive) | GI50 (K562): 27.4 µM (inactive) | GI50 (KM12): 26.4 µM (inactive) | GI50 (Hs-578T): 24.5 µM (inactive) | GI50 (UACC-62): 20 µM (inactive) | GI50 (NCI-H23): 27.1 µM (inactive) | GI50 (RPMI-8226): 21.7 µM (inactive) | GI50 (NCI-H460): 21.8 µM (inactive) | GI50 (SK-MEL-28): 38 µM (inactive) | GI50 (DU-145): 38.3 µM (inactive) | GI50 (HOP-62): 10.9 µM (inactive) | GI50 (MDA-MB-435): 33.3 µM (inactive) | GI50 (HL-60): 1.3 µM (inactive) | GI50 (SNB-75): 25.7 µM (inactive) | GI50 (HCC 2998): 20.2 µM (inactive) | GI50 (NCI-H522): 16.7 µM (inactive) | GI50 (NCI-H226): 30.1 µM (inactive) | GI50 (MOLT-4): 17.9 µM (inactive) | GI50 (CAKI-1): 31.3 µM (inactive) | GI50 (SK-MEL-5): 16.1 µM (inactive)
